Laboratory results published in patent publication US20230200390A1, “SELECTIVE HERBICIDES BASED ON SUBSTITUTED ISOXAZOLIN CARBOXAMIDES AND MEFENPYR-DIETHYL” (BAYER AKTIENGESELLSCHAFT, priority 2020, published 2023).

Assays:
Assay type in all cases: in vivo
[1] = tested on: spring wheat, TRZAS Triso; experiment: Seed treatment with safener; post-emergence herbicide, crop damage; settings: for HER effect + SAF [%] (crop damage) / Reduction [%] / Reduction [Difference]: mefenpyr-diethyl 0.5 g a.i./kg seed; for HER effect [%] (crop damage, herbicide without safener): no safener
Description: (§1) For safener seed treatment trials, sufficient seed amounts of the respective crops (spring wheat (TRZAS); spring barley (HORVS)) were weighed into screw cap glass bottles with a minimum volume trice of the seeds.
(§2) As a first step, specified safeners formulated as wettable powder (WP) or wettable granules (WG) were weighed out for the required dosages (g a.i./kg seed), corresponding to the seed amounts. The safener amounts were mixed with a coloured slurry blind formulation type, prediluted with milk at 3.5% fat rate (25 mgs slurry formulation plus 2 ml milk per 10 grams of seed). A tube roller was used for coating. The solutions were gradually pipetted each on the rotating seeds followed by coating for min. 3 hours until all liquid had been soaked up by the seeds. Thereafter, the coated seeds were put flat on open trays for drying over night at room temperature.
(§3) Treated seeds were then placed into pots (7 cm diameter) on the surface of sandy loam, pressed down, flat covered with additional soil and finally covered with sandy soil, also pressed down, watered, and kept under good growth conditions in a greenhouse, until the plants had reached 2-leaf-stage (BBCH 12).
(§4) At that stage, post-emergence application of the specified herbicides was done on:
(§5) a) pot sets containing plants with safener-coated seeds as described above,
(§6) b) as a reference, pot sets of plants without seed treatment.
(§7) The herbicides were formulated as wettable powder (WP). Equivalent to the spray area, compound amounts were weighed out and diluted related to the water application rate (300 l/ha) to an aqueous suspension plus additive (1 l/ha MERO). Dosage related equivalents were conventionally sprayed on trays with the potted plants.
(§8) After application, the test plants were kept under good growth conditions in a greenhouse.
(§9) Assessment timings were 10 and 21 days after treatment (DAT) with the herbicide, by visual scoring of the crop damage in % (comparison of untreated with treated plants, either sprayed only with herbicide or with herbicide on plants with treated seeds).

[2] = tested on: spring barley, HORVS Montoya; experiment: as above; settings: 10 DAT; for HER effect + SAF / Reduction [%] / Reduction [Difference]: mefenpyr-diethyl 0.5 g a.i./kg seed
Description: as §1, §2, §3, §4, §5, §6, §7, §8, §9

[3] = tested on: spring wheat, TRZAS Triso; experiment: Tank-mix; post-emergence: crop damage by herbicide with/without safener mefenpyr-diethyl
Procedure: (§10) Seeds of crops (spring wheat, TRZAS; spring barley, HORVS; maize, ZEAMA) were placed in sandy loam soil in peat pots, covered with soil and cultivated in a greenhouse under good growth conditions. Two to three weeks after sowing, the test plants were treated at the 1 to 3-leaf stage. The herbicide/safener active compound combinations according to the invention, formulated as wettable powders or emulsion concentrates, and, in parallel tests, the correspondingly formulated individual active compounds were sprayed onto the green parts of the plants in various dosages using an amount of water of 300 l/ha (converted).
(§11) The pots were returned under good growing conditions in a glasshouse and a visual assessment of herbicidal effects was made at intervals from 1 to 3 weeks after herbicide application (DAT=days after treatment). Assessment was on a percentage basis in comparison with untreated control plants (0%=no injury, 100%=complete kill).

[4] = tested on: spring barley, HORVS Montoya; experiment: as above; settings: 10 DAT
Procedure: as §10, §11

[5] = HER 32 g a.i./ha post-emergence
[6] = herbicide alone 8 g a.i./ha post-emergence
[7] = herbicide alone 32 g a.i./ha post-emergence
[8] = HER 6 g a.i./ha + mefenpyr-diethyl 50 g a.i./ha, 10 DAT
[9] = HER 24 g a.i./ha + mefenpyr-diethyl 100 g a.i./ha, 10 DAT
[10] = HER 8 g a.i./ha + mefenpyr-diethyl 50 g a.i./ha
[11] = HER 1.5 g a.i./ha + mefenpyr-diethyl 50 g a.i./ha, 21 DAT
[12] = HER 6 g a.i./ha + mefenpyr-diethyl 50 g a.i./ha, 21 DAT
[13] = HER 24 g a.i./ha + mefenpyr-diethyl 100 g a.i./ha, 21 DAT
[14] = HER 2 g a.i./ha + mefenpyr-diethyl 50 g a.i./ha
[15] = HER 32 g a.i./ha + mefenpyr-diethyl 100 g a.i./ha
[16] = HER 4 g a.i./ha + mefenpyr-diethyl 50 g a.i./ha, 10 DAT
[17] = HER 16 g a.i./ha + mefenpyr-diethyl 100 g a.i./ha, 10 DAT
[18] = HER 4 g a.i./ha + mefenpyr-diethyl 50 g a.i./ha
[19] = HER 16 g a.i./ha + mefenpyr-diethyl 100 g a.i./ha

## CC1(C(=O)NC2CC=C(C(=O)NS(C)(=O)=O)C2)CC(c2cc(F)cc(F)c2)=NO1 (mixture of isomers) [Example 1.61]
[1]; 10 DAT, HER dose 8 g a.i./ha
  HER effect + SAF [%] (crop damage): 10%
  Reduction [%]: 80%
  Reduction [Difference]: 40
  HER effect [%] (crop damage, herbicide without safener): 50%
[2]; HER 8 g a.i./ha post-emergence
  HER effect + SAF: 10%
  Reduction [%]: 80%
  Reduction [Difference]: 40
[2]; [5]
  HER effect + SAF: 20%
  Reduction [%]: 67%
  Reduction [Difference]: 40
[2]; [6]
  HER effect: 50%
[2]; [7]
  HER effect: 60%
[3]; [8]
  HER effect + SAF: 10%
  Reduction [%]: 80%
  Reduction [Difference]: 40
[3]; [9]
  HER effect + SAF: 20%
  Reduction [%]: 60%
  Reduction [Difference]: 30
[3]; herbicide alone 6 g a.i./ha, 10 DAT
  HER effect: 50%
[3]; herbicide alone 24 g a.i./ha, 10 DAT
  HER effect: 50%
[4]; [10]
  HER effect + SAF: 30%
  Reduction [%]: 40%
  Reduction [Difference]: 20
[4]; herbicide alone 8 g a.i./ha
  HER effect: 50%

## COC(=O)C1(C)CC(NC(=O)C2(C(C)(F)F)CC(c3cc(F)cc(F)c3)=NO2)CO1 (mixture of isomers) [Example 1.94]
[1]; 21 DAT, HER dose 1.5 g a.i./ha
  HER effect + SAF [%] (crop damage): 0%
  Reduction [%]: 100%
  Reduction [Difference]: 20
  HER effect [%] (crop damage, herbicide without safener): 20%
[1]; 21 DAT, HER dose 6 g a.i./ha
  HER effect + SAF [%] (crop damage): 10%
  Reduction [%]: 88%
  Reduction [Difference]: 75
  HER effect [%] (crop damage, herbicide without safener): 85%
[1]; 21 DAT, HER dose 24 g a.i./ha
  HER effect + SAF [%] (crop damage): 20%
  Reduction [%]: 76%
  Reduction [Difference]: 65
  HER effect [%] (crop damage, herbicide without safener): 85%
[2]; HER 2 g a.i./ha post-emergence
  HER effect + SAF: 0%
  Reduction [%]: 100%
  Reduction [Difference]: 30
[2]; HER 8 g a.i./ha post-emergence
  HER effect + SAF: 20%
  Reduction [%]: 78%
  Reduction [Difference]: 70
[2]; [5]
  HER effect + SAF: 30%
  Reduction [%]: 67%
  Reduction [Difference]: 60
[2]; herbicide alone 2 g a.i./ha post-emergence
  HER effect: 30%
[2]; [6]
  HER effect: 90%
[2]; [7]
  HER effect: 90%
[3]; [11]
  HER effect + SAF: 0%
  Reduction [%]: 100%
  Reduction [Difference]: 20
[3]; [12]
  HER effect + SAF: 0%
  Reduction [%]: 100%
  Reduction [Difference]: 85
[3]; [13]
  HER effect + SAF: 10%
  Reduction [%]: 88%
  Reduction [Difference]: 75
[3]; herbicide alone 1.5 g a.i./ha, 21 DAT
  HER effect: 20%
[3]; herbicide alone 6 g a.i./ha, 21 DAT
  HER effect: 85%
[3]; herbicide alone 24 g a.i./ha, 21 DAT
  HER effect: 85%
[4]; [14]
  HER effect + SAF: 0%
  Reduction [%]: 100%
  Reduction [Difference]: 30
[4]; [10]
  HER effect + SAF: 30%
  Reduction [%]: 67%
  Reduction [Difference]: 60
[4]; [15]
  HER effect + SAF: 70%
  Reduction [%]: 22%
  Reduction [Difference]: 20
[4]; herbicide alone 2 g a.i./ha
  HER effect: 30%
[4]; herbicide alone 8 g a.i./ha
  HER effect: 90%
[4]; herbicide alone 32 g a.i./ha
  HER effect: 90%

## CCOC(=O)C1CC(NC(=O)C2(C)CC(c3cccc(F)c3)=NO2)CO1 (mixture of isomers) [Example 1.67]
[1]; 10 DAT, HER dose 4 g a.i./ha
  HER effect + SAF [%] (crop damage): 10%
  Reduction [%]: 80%
  Reduction [Difference]: 40
  HER effect [%] (crop damage, herbicide without safener): 50%
[1]; 10 DAT, HER dose 16 g a.i./ha
  HER effect + SAF [%] (crop damage): 20%
  Reduction [%]: 71%
  Reduction [Difference]: 50
  HER effect [%] (crop damage, herbicide without safener): 70%
[3]; [16]
  HER effect + SAF: 10%
  Reduction [%]: 80%
  Reduction [Difference]: 40
[3]; [17]
  HER effect + SAF: 20%
  Reduction [%]: 71%
  Reduction [Difference]: 50
[3]; herbicide alone 4 g a.i./ha, 10 DAT
  HER effect: 50%
[3]; herbicide alone 16 g a.i./ha, 10 DAT
  HER effect: 70%
[4]; [18]
  HER effect + SAF: 0%
  Reduction [%]: 100%
  Reduction [Difference]: 30
[4]; [19]
  HER effect + SAF: 0%
  Reduction [%]: 100%
  Reduction [Difference]: 60
[4]; herbicide alone 4 g a.i./ha
  HER effect: 30%
[4]; herbicide alone 16 g a.i./ha
  HER effect: 60%
